{
  "source": "patent US20250375474A1",
  "about": "“COMPOSITIONS FOR THE PREVENTION AND TREATMENT OF MOISTURE-ASSOCIATED SKIN DAMAGE” (SCOTIADERM INC., priority 2022, published 2025)",
  "data": [
    {"system": "incontinence-associated dermatitis (IAD) lesions induced with 5% pancreatin", "experiment": "Incontinence-associated dermatitis (IAD) rabbit model, treatment of induced ear lesions", "type": "in vivo", "conditions": "rabbit ears; 1% clotrimazole, 1% hydrocortisone, 15% zinc oxide applied separately vs combination", "experimental": "A rabbit model of IAD was also investigated. A combination cream (DGBC) was used to assess healing of an animal model of IAD compared with three active components of the cream. Twenty-six IAD lesions were induced and each lesion was treated with the individual components and the combination cream.\nRabbits were purchased from Charles River to be used for these experiments. […] Additionally, the animals' ears were used to maximize the sample size, effectively halving the number of animals required for the project. Twenty-two female rabbits were purchased: 2 for the pilot phase and 18 for phase 2 of the project. The study was conducted, and animals were housed at the AVC Research Facility as per CCAC guidelines. The experimental treatment utilized a therapeutic cream composed of 1.0% hydrocortisone, 1.0% clotrimazole and 15.0% zinc oxide (DGBC).\nInduction of IAD. 1.Sedation of rabbit: Midazolam 0.5 mg/kg intramuscularly (IM) plus buprenorphine 0.03 mg/kg IM. Animals were assessed for sedation prior to gauze application. Animals requiring further sedation were sedated with ketamine 5 mg/kg IM. 2.Cleaning of the ear: The skin of both inner ears of each animal were cleaned with a 2×2 gauze saturated with 3 ml isopropyl alcohol and allowed to air dry for 5 minutes before applying the saturated gauze. The animal were held for a period of 5 min to ensure the ear was dry prior to application of IAD induction. 3.Application of gauze with 5% pancreatin to induce IAD: both ears of the animals were irritated as follows: Sterile 2×2 gauze was used as a carrier for the irritant. The gauze was saturated with 3 ml of pancreatin. 4.Wrapping of the ear: Both ears of each animal had gauze with pancreatin applied to the medial surface. […] 5.Monitoring period of 24 h: After 24 hours the bandage and occlusive dressing was removed and the ears assessed for sufficient irritation. […] Rabbits assessed as painful 1 hour after administration of gabapentin were treated with buprenorphine 0.03 mg/kg SC and be reassessed for pain in 1 hour. […]", "values": [
      {"molecule": "Clc1ccccc1C(c1ccccc1)(c1ccccc1)n1ccnc1", "note": "[clotrimazole, Clotrimazole]", "effect in treating IAD compared with DGBC therapeutic cream": "do not produce the same effect"},
      {"molecule": "C[C@]12CCC(=O)C=C1CC[C@@H]1[C@@H]2[C@@H](O)C[C@@]2(C)[C@H]1CC[C@]2(O)C(=O)CO", "note": "[hydrocortisone, 11β, 17α,21-Trihydroxypregn-4-ene-3,20-dione]", "effect in treating IAD compared with DGBC therapeutic cream": "do not produce the same effect"},
      {"molecule": "[O]=[Zn]", "note": "[zinc oxide, Zinc oxide]", "effect in treating IAD compared with DGBC therapeutic cream": "do not produce the same effect"}
    ]}
  ]
}
